One series deals with T1, HDAC1 (Homo sapiens, UniProt Q13547).
T1 construct: purchased BPS 50051
Put plainly: Enzymatic test HDAC1. It is filed as biochemical. The settings on record: Table 3.

The target of a further series is T2, recombinant human HDAC6 (Homo sapiens, UniProt Q9UBN7).
T2 sequence (Q9UBN7 1-1215): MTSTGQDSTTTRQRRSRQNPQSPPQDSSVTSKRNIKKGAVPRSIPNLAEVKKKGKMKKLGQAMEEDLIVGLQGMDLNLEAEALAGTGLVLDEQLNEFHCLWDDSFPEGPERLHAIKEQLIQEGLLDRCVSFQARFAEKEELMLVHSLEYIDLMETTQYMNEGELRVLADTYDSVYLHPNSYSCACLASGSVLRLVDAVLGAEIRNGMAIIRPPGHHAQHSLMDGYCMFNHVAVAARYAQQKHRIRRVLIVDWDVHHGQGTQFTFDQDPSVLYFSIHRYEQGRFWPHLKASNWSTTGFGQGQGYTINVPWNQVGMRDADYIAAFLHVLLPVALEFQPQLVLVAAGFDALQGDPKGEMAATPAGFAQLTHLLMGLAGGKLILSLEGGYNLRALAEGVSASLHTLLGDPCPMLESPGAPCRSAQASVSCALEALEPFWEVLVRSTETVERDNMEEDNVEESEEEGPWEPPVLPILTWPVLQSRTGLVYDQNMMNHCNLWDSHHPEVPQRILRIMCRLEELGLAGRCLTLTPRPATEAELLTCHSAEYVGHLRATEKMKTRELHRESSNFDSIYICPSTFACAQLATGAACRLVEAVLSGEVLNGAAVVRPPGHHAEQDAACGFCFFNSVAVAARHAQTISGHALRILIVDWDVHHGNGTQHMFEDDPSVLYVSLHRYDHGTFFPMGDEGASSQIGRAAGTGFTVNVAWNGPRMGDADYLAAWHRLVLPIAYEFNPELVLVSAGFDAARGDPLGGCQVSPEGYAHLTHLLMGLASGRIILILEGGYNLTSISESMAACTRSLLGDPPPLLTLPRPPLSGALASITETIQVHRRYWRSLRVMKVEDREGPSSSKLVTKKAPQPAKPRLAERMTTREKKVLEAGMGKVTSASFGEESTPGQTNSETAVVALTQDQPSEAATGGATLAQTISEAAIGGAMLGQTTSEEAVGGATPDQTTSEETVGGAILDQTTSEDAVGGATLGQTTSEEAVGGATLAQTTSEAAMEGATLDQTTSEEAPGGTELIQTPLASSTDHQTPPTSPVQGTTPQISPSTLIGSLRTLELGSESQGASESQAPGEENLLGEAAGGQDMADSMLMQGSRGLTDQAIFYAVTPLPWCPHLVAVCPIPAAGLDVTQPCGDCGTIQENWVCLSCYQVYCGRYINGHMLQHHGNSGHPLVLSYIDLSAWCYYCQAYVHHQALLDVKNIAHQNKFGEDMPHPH
Put plainly: Enzymatic screening on recombinant human HDAC6. It is filed as biochemical. The settings on record: read-out: HDAC6 IC50. The procedure, abridged:
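Compound + recombinant human HDAC, 30 °C, incubation time isoform-specific. Substrate (FdL, FdL-Green or Tfal) added as 2× stock in 25 mM Tris-HCl pH 8/130 mM NaCl/0.05% Tween-20/10% glycerol; reaction at 30 °C.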

Series [1] is described as follows: Stability to Phase I metabolism in rat S9 liver fraction. To be noted: after 90 min, 37° C. The class given is in vitro ADME. The procedure, abridged: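 Compounds were incubated with rat or human liver S9 fraction at 37 °C for up to 90 min. Reactions were quenched on ice with acidified acetonitrile and analysed by HPLC-UV or LC-MS/MS. Percent remaining versus time zero and intrinsic clearance were calculated.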

Series [2] relates to B 697 promyelocytic cell line. Put plainly: Cytotoxicity on 697 cell line (CellTiter 96). The class given is cell-based. The settings on record: 72 hours incubation, read-out: 697 TOXICITY
The procedure, abridged:
(§1)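 Cells seeded (2×10^4/well for 697, 5×10^5/well for PBMCs); compounds added after 24 h at 1–10000 nM (697) or 1.5–10000 nM (PBMCs) and incubated 72 h. Viability read by CellTiter 96 Aqueous One tetrazolium assay of mitochondrial function.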

The target of another series is T3, HDAC2 (Homo sapiens, UniProt Q92769).
T3 construct: purchased BPS 50002
Put plainly: Enzymatic test HDAC2. The settings on record: Table 3. It is filed as biochemical.

For another series, the target named is T4, HDAC5 (Homo sapiens, UniProt Q9UQL6).
T4 construct: purchased BPS 50005
Put plainly: Enzymatic test HDAC5. The class given is biochemical. To be noted: Table 3. The method, then:
After a period of incubation at 30° C. (incubation times vary for different isoforms and are shown in table 1) 25 μL of solution containing the substrate were added. As substrate, FLUOR DE LYS® deacetylase substrate (Enzo Life Sciences, cat #BML-K1104, FdL), FLUOR DE LYS®-Green substrate (Enzo Life Sciences, cat #BML-K1572 FdL_G) and trifluoroacetyl-L-lysine (Tfal)-2× concentrated solution in 25 mM Tris-HCl, pH 8, 130 mM NaCl 0.05% Tween-20 10% glycerol) were used. Following a reaction period at 30° C.

Series [3] can be described thus: Stability in human plasma. The class given is in vitro ADME. To be noted: after 4 hours, 37° C. The procedure, abridged: (§2)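 Compounds incubated at 37° C in rat or human plasma at 50 μM (UV/HPLC) or 1 or 2 μM (LC-MS/MS) for 0–4 h. Reaction stopped with acidified acetonitrile on ice; percent remaining versus initial amount and plasma half-life calculated.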
For series [4], the system named is peripheral blood mononuclear cells (PBMCs). Put plainly: Cytotoxicity on PBMCs (CellTiter 96). The class given is cell-based. To be noted: PBMC, 72 h; read-out: PBMC TOXICITY (72 h). The procedure, abridged: as §1
The nature of another series: Stability in rat plasma. The class given is in vitro ADME. To be noted: after 4 hours, 37° C. In short, it runs like this: as §2

Data on 11 compounds can be found in patent US11351178B2, “Selective HDAC6 inhibitors” (ITALFARMACO S.P.A., priority 2017, dated 2022).

pIC50: −log10 of the molar value. Where two headings read alike, the source gives them in different places.

T1 sequence (Q13547 whole entry): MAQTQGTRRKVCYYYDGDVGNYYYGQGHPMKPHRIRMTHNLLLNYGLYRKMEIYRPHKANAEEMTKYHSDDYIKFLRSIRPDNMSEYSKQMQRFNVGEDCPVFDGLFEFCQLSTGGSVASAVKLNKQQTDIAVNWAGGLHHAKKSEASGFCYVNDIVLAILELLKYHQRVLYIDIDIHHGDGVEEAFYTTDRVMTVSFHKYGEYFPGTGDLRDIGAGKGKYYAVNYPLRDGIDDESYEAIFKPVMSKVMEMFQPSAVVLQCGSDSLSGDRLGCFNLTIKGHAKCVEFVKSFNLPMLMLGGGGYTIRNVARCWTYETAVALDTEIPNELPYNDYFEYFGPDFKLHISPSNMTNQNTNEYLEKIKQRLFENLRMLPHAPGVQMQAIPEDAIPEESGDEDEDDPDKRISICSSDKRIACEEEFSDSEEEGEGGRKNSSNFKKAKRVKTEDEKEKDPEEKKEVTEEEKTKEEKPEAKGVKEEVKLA
T3 sequence (Q92769 whole entry): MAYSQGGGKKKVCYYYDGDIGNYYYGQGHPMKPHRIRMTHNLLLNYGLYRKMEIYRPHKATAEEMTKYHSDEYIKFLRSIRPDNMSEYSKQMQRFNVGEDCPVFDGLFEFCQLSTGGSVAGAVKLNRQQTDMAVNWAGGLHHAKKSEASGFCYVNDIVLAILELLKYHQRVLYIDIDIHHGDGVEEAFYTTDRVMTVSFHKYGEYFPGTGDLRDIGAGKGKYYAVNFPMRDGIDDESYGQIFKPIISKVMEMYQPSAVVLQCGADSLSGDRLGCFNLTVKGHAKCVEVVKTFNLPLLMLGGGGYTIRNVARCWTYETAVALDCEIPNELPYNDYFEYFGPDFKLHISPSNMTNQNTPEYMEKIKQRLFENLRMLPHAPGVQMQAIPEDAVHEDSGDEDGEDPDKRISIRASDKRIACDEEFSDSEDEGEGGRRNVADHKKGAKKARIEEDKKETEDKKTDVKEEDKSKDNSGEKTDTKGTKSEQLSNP
T4 sequence (Q9UQL6 656-1122 limits assumed): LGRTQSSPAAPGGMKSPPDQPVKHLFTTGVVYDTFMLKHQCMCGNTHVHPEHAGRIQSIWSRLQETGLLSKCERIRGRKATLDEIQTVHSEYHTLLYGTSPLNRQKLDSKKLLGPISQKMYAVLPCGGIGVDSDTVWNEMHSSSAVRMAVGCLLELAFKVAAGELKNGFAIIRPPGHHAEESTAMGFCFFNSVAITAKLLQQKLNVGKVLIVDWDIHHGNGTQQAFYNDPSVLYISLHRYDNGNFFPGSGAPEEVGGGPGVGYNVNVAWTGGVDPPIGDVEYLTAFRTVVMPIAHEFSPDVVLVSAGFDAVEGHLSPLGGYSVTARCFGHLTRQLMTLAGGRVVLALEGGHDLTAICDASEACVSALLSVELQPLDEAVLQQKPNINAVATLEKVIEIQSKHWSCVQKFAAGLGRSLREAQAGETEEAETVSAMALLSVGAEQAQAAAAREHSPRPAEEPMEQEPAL

With `Cn1c(Sc2c(F)cc(C(=O)NO)cc2F)nnc1-c1cccs1` [comp. 17, 3,5-difluoro-N-hydroxy-4-((4-methyl-5-(thiophen-2-yl)-4H-1,2,4-triazol-3-yl)thio)benzamide], the pIC50 at HDAC1 was 5.40; on recombinant human HDAC6 (Table 2), 8.05; on recombinant human HDAC6 (Table 3), 8.05; in series [2], 5.28; at HDAC2, 4.80; at HDAC5, 5.81. In addition, the pIC50 in series [4] was 5.05. Further, in series [1], the “residual percentage in rat S9 fraction” value turned out to be 71%. Besides, the “residual percentage in human plasma” value in series [3] came out at 98%. For the same compound, in the series “Stability in rat plasma”, the “residual percentage in rat plasma” value is reported as 87%.

Take `O=C(NO)c1cc(F)c(Cn2nnc(-c3scc4c3OCCO4)n2)c(F)c1` [comp. 79, 4-[[5-(2,3-dihydrothieno[3,4-b][1,4]dioxin-5-yl)tetrazol-2-yl]methyl]-3,5-difluoro-benzenecarbohydroxamic acid]: the pIC50 on HDAC1 was 5.64; at recombinant human HDAC6 (Table 2), 8.10; at recombinant human HDAC6 (Table 3) it was 8.10; in series [2], 4.65; against HDAC2, 5.17; on HDAC5, 6.16. Further, in series [4], the pIC50 is 5.52. Moreover, the “residual percentage in rat S9 fraction” value in series [1] is given as 73%. Moreover, in “Stability in rat plasma”, the “residual percentage in rat plasma” value was 99%.

As to `O=C(NO)c1cc(F)c(Cn2nnnc2-c2ccccn2)c(F)c1` [comp. 13, 3,5-difluoro-N-hydroxy-4-((5-(pyridin-2-yl)-1H-tetrazol-1-yl)methyl)benzamide], the pIC50 at HDAC1 was 5.54; on recombinant human HDAC6 (Table 2), 8.40; on recombinant human HDAC6 (Table 3), 8.40; against HDAC2 it was 4.94; at HDAC5, 6.29. Also, the “residual percentage in rat S9 fraction” value in [1] is recorded as 90.9%. Further, in series [3], the “residual percentage in human plasma” value was found to be 94%. Besides, the “residual percentage in rat plasma” value in “Stability in rat plasma” worked out at 96.7%.

`CN(C)c1cccc(-c2nnc(Sc3ccc(C(=O)NO)cc3)n2C)c1` [comp. 77, 4-[[5-[3-(dimethylamino)phenyl]-4-methyl-1,2,4-triazol-3-yl]sulfanyl]benzenecarbohydroxamic acid]: the pIC50 is 6.24 on HDAC1; 7.77 at recombinant human HDAC6 (Table 2); 7.77 on recombinant human HDAC6 (Table 3); 4.96 in series [2]; 5.28 at HDAC2; 5.35 against HDAC5. Besides, in [4], the pIC50 is 5.70. Further, the “residual percentage in rat S9 fraction” value in [1] worked out at 40%.

Take `O=C(NO)c1ccc(Cc2nnc(-c3ccc(F)cc3F)o2)cc1` [comp. 58, 4-((5-(2,4-difluorophenyl)-1,3,4-oxadiazol-2-yl)methyl)-N-hydroxybenzamide]: the pIC50 against HDAC1 is 6.44; at recombinant human HDAC6 (Table 2) it was 8.22; at recombinant human HDAC6 (Table 3), 8.22; against HDAC2 it was 5.76; at HDAC5, 5.43. Besides, the “residual percentage in rat S9 fraction” value in [1] came out at 15%. Also, the “residual percentage in rat plasma” value in “Stability in rat plasma” came out at 106%.

On to `O=C(NO)c1cc(F)c(Cn2nnc(-c3cccs3)n2)c(F)c1` [comp. 65, 3,5-difluoro-4-[[5-(2-thienyl)tetrazol-2-yl]methyl]benzenecarbohydroxamic acid], for which the pIC50 was 5.62 on HDAC1; 8.22 at recombinant human HDAC6 (Table 2); 8.22 on recombinant human HDAC6 (Table 3); 4.75 at HDAC2; 5.92 against HDAC5. The “residual percentage in rat S9 fraction” value in series [1] is recorded as 8%. Moreover, in the series “Stability in rat plasma”, the “residual percentage in rat plasma” value was found to be 88%.

`O=C(NO)c1ccc(Cn2nnc(-c3ccc(C(F)(F)F)cc3)n2)cc1` [comp. 23, 4-[[5-[4-(trifluoromethyl)phenyl]tetrazol-2-yl]methyl]benzenecarbohydroxamic acid]: the pIC50 is 6.21 against HDAC1; 7.96 at recombinant human HDAC6 (Table 2); 7.96 on recombinant human HDAC6 (Table 3); 5.69 against HDAC2; 5.32 on HDAC5. Further, the “residual percentage in rat S9 fraction” value in series [1] is reported as 8%. Further, the “residual percentage in rat plasma” value in the series “Stability in rat plasma” is 77%.

In the case of `Cn1c(Sc2c(F)cc(C(=O)NO)cc2F)nnc1C(c1ccccc1)c1ccccc1` [comp. 98, 4-[(5-benzhydryl-4-methyl-1,2,4-triazol-3-yl)sulfanyl]-3,5-difluoro-benzenecarbohydroxamic acid], the pIC50 against HDAC1 was 6.00; on recombinant human HDAC6 (Table 2), 7.21; at recombinant human HDAC6 (Table 3), 7.21; against HDAC2, 5.37; at HDAC5, 5.58. The “residual percentage in rat S9 fraction” value in series [1] is 88%. Further, the “residual percentage in rat plasma” value in “Stability in rat plasma” is 89%.

As to `Cc1cc(-c2nnc(Sc3ccc(C(=O)NO)cc3)n2C)nn1C` [comp. 85, 4-[[5-(1,5-dimethylpyrazol-3-yl)-4-methyl-1,2,4-triazol-3-yl]sulfanyl]benzenecarbohydroxamic acid], the pIC50 is 6.33 at HDAC1; 8.30 at recombinant human HDAC6 (Table 2); 8.30 at recombinant human HDAC6 (Table 3); 5.94 in series [2]; 5.77 at HDAC2; 6.25 at HDAC5. Also, the pIC50 in series [4] was 5.70. In series [1], the “residual percentage in rat S9 fraction” value was determined as 75%. In addition, the “residual percentage in rat plasma” value in the series “Stability in rat plasma” is on record as 76%.

With `O=C(NO)c1ccc(Cn2nnc(-c3ccccc3F)n2)cc1` [comp. 33, 4-[[5-(2-fluorophenyl)tetrazol-2-yl]methyl]benzenecarbohydroxamic acid], the pIC50 against HDAC1 is 6.63; at recombinant human HDAC6 (Table 2) it was 8.52; on recombinant human HDAC6 (Table 3) it was 8.52; against HDAC2, 6.09; against HDAC5, 5.63. Further, the “residual percentage in rat S9 fraction” value in series [1] came out at 2%. Further, in the series “Stability in rat plasma”, the “residual percentage in rat plasma” value came to 52%.

As to `CN(C)S(=O)(=O)c1cccc(-c2nnn(Cc3ccc(C(=O)NO)cc3)n2)c1` [comp. 59, 4-[[5-[3-(dimethylsulfamoyl)phenyl]tetrazol-2-yl]methyl]benzenecarbohydroxamic acid], the pIC50 against HDAC1 was 6.45; on recombinant human HDAC6 (Table 2), 8.15; on recombinant human HDAC6 (Table 3) it was 8.15; against HDAC2, 5.64; at HDAC5, 5.38. In series [1], the “residual percentage in rat S9 fraction” value is listed as 8%. Moreover, the “residual percentage in rat plasma” value in the series “Stability in rat plasma” was found to be 53%.
